The values that follow come from patent US6413764B1, “Human metabotropic glutamate receptors, nucleic acids encoding same and uses thereof” (Merck & Co., Inc., priority 1993, dated 2002).

Experiment [1] deals with T1, human mGluR5a receptor (Homo sapiens, UniProt P41594). The experiment is described as follows: Two-electrode voltage clamp of Xenopus oocytes injected with mGluR5a3 transcripts. The experiment is classed as cell-based. To be noted: for transmembrane currents after application of the compound: oocytes injected with mGluR5a3 transcripts, 0.001-0.1 μM quisqualate, 0.1-10 μM glutamate, 0.1-300 μM 1S,3R-ACPD, clamped at −80 to −100 mV; for dose-response of current magnitude: varying amounts of each compound, mGluR5a3 transcripts. As for the experimental part:
Xenopus oocytes were injected with in vitro transcripts prepared from constructs containing DNA encoding human metabotropic receptors. Electrophysiological measurements of the oocyte transmembrane currents were made using the two-electrode voltage clamp technique (see e.g., Stuhmer (1992) Meth. Enzymol. 207:319-339).
Recombinant capped transcripts of metabotropic receptor cDNAs contained in construct mGluR5a3 were synthesized from linearized plasmids using the Megascript Kit (Cat. #1334, Ambion, Inc., Austin, Tex.). The mass of each synthesized transcript was determined by UV absorbance and the integrity of each transcript was determined by electrophoresis through an agarose gel.
Xenopus oocytes were injected with 10-50 ng of metabotropic receptor transcripts per oocyte. The preparation and injection of oocytes were carried out as described by Dascal [(1987) Crit; Rev. Biochem. 22:317-387]. Two-to-six days following mRNA injection, the oocytes were examined using the two-electrode voltage clamp technique. The cells were bathed in Ringer's solution (115 mM NaCl, 2.5 mM KCl, 1.8 mM CaCl2, 10 mM HEPES, pH 7.3), and the membrane potential was clamped at −80 to −100 mV. Drugs were applied by pipetting 60 μl aliquots of drug-containing solution directly into the bath. Data were sampled at 2-5 Hz with a Labmaster data acquisition board in PC-386 using AXOTAPE version 1.2 (Axon Instruments, Foster City, Calif.) software. Data were exported to a laser printer or plotted using Sigmaplot version 5.0.
Metabotropic receptor-modulating compounds, i.e., 0.001-0.1 μM quisqualate, 0.1-10 μM glutamate and 0.1-300 μM 1S,3R-ACPD (1-amino-cyclopentyl-1,3-dicarboxylic acid), were applied to the bath and the transmembrane currents were recorded.

For experiment [2], the system named is untransfected HEK 293 cells. Put plainly: Fluorescence imaging assay (fura-2), untransfected control cells. The experiment is classed as cell-based, human. To be noted: 100 μM, on average. As for the experimental part:
(§1) HEK 293 cells that had been transiently transfected with mGluR5a3 and untransfected HEK 293 cells (control) were analyzed by digital video imaging in order to visualize metabotropic receptor-mediated changes in intracellular Ca^++ concentration. Transfectants (4×10^5 cells per 35-mm culture dish with glass-insert bottom) were loaded with fura-2 by exposing the cells to 1 μM fura-2 (acetoxymethyl ester) for 25 min at room temperature in the dark. The cells were then washed three times with DMEM and four times with Ringer's (160 mM NaCl, 5 mM KCl, 2 mM CaCl2, 1 mM MgCl2, 11 mM glucose, 5 mM HEPES, pH 7.3) solution.
(§2) The transfectants and untransfected cells were then placed on the stage of an Axiovert 100 TV inverted microscope (Zeiss, Oberkochren, Germany) equipped with a 150 W xenon lamp as the UV light source. […]
(§3) The uncalibrated fura-2 ratios were used to generate pseudocolor images with purple corresponding to resting intracellular Ca^++ concentration (˜100 nM) and red to high intracellular Ca^++ concentration (˜1 μM). For quantitative analysis, the average ratio value in a 12-by-12 pixel region over each cell was calculated by the software for each ratio image in an experiment and imported into a spreadsheet for further analysis and graphing.

Experiment [3] deals with T1, human mGluR5a receptor. Put plainly: Fluorescence imaging assay (fura-2) in HEK 293 cells transiently transfected with mGluR5a3. The class given is cell-based. Details: expressed in transfected cells; host or cells: HEK 293 cells, transient CaPO4 transfection. The conditions noted are these: 100 μM; HEK 293 transiently transfected with mGluR5a3. As for the experimental part:
as §1, §2, §3

T1 sequence (P41594 21-1180 isoform P41594-2 limits assumed): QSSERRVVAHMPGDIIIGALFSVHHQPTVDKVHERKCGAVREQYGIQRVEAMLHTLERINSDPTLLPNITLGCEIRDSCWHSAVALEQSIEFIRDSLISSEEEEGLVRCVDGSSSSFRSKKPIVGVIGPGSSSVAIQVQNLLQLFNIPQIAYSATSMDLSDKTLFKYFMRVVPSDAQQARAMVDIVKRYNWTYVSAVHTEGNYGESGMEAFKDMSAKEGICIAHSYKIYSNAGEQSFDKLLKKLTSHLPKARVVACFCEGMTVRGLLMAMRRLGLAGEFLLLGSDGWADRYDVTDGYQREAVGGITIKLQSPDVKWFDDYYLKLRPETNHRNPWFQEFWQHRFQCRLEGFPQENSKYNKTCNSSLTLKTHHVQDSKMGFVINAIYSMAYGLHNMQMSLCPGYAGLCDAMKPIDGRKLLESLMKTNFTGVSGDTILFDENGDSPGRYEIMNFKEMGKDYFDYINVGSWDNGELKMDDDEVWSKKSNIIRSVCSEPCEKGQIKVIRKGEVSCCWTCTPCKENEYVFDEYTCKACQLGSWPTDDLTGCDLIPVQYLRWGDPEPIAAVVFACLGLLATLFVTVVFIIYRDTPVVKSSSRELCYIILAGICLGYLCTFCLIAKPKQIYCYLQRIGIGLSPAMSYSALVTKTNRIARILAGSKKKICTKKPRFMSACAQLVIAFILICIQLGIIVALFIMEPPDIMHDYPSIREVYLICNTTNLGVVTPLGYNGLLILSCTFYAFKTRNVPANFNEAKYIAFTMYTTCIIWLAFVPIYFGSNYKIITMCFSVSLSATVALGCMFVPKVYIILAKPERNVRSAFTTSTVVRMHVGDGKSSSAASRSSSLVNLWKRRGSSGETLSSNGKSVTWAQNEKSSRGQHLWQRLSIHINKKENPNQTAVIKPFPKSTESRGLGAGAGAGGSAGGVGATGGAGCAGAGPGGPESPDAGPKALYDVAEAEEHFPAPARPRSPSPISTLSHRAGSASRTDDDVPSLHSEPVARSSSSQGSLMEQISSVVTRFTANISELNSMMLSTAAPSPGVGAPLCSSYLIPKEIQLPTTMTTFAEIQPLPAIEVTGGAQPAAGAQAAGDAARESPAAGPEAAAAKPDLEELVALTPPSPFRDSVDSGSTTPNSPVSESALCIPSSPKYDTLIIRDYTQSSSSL

On to `NC1(C(=O)O)CCC(C(=O)O)C1` (stereo not drawn) [1S,3R-ACPD, 1-amino-cyclopentyl-1,3-dicarboxylic acid], for which, at human mGluR5a receptor [1], the “transmembrane currents after application of the compound” value (from here on “transmembrane currents”) is recorded as “Significant currents were detected” and the “dose-response of current magnitude” value is “current magnitude increased with increasing concentration”.

With `N[C@@H](CCC(=O)O)C(=O)O` [glutamate], on human mGluR5a receptor [1], the “transmembrane currents” value was “Significant currents were detected” and the “dose-response of current magnitude” value is “current magnitude increased with increasing concentration”.

Regarding `N[C@@H](Cn1oc(=O)[nH]c1=O)C(=O)O` [quisqualate], in experiment [2], the “intracellular Ca++ concentration change” value was “did not change”. In addition, at human mGluR5a receptor [1], the “transmembrane currents” value is “Significant currents were detected” and the “dose-response of current magnitude” value is recorded as “current magnitude increased with increasing concentration”. Besides, at human mGluR5a receptor [3], the “transfected cells whose intracellular Ca++ concentration increased” value is 26.7±22.3%.
